Measured values as given in the NIST ThermoML archive (doi:10.1016/j.jct.2013.05.003).
Numbers after ± are expanded uncertainties.

Experiment: xn = mol fraction of the nth substance listed
Settings: 101.3 kPa, Liquid, fixed-path interferometer

CCOCCCN [3-ethoxy-1-propanamine] + O
speed of sound [m/s]
Settings | 283.15 K | 288.15 K | 293.15 K | 298.15 K | 303.15 K
x1 = 0.0001081 | 1448.8 ± 1.3 | 1466.3 ± 1.3 | 1483.4 ± 1.3 | 1497.2 ± 1.2 | 1509.6 ± 1.2
x1 = 0.0003191 | 1450 ± 1.3 | 1467.4 ± 1.3 | 1484.5 ± 1.3 | 1498 ± 1.2 | 1510.4 ± 1.2
x1 = 0.0006252 | 1451.8 ± 1.3 | 1469.1 ± 1.3 | 1486 ± 1.3 | 1499.4 ± 1.2 | 1511.6 ± 1.2
x1 = 0.000707 | 1452.2 ± 1.3 | – | – | – | –
x1 = 0.0009424 | 1453.7 ± 1.3 | 1470.9 ± 1.3 | 1486.9 ± 1.3 | 1500.9 ± 1.2 | 1512.8 ± 1.2
x1 = 0.001046 | 1454.2 ± 1.3 | – | – | – | –
x1 = 0.001284 | 1455.6 ± 1.3 | 1472.6 ± 1.3 | 1489.1 ± 1.3 | 1502.2 ± 1.2 | 1514.2 ± 1.2
x1 = 0.001947 | 1459.5 ± 1.3 | 1476.2 ± 1.3 | 1491.7 ± 1.3 | 1505.4 ± 1.2 | 1516.8 ± 1.2
x1 = 0.002912 | 1465.1 ± 1.3 | 1481.3 ± 1.3 | 1496.4 ± 1.3 | 1509.6 ± 1.2 | 1520.7 ± 1.2
x1 = 0.00392 | 1470.9 ± 1.3 | 1486.6 ± 1.3 | 1501.2 ± 1.3 | 1514 ± 1.2 | 1524.7 ± 1.2
x1 = 0.005098 | 1477.6 ± 1.3 | 1492.8 ± 1.3 | 1506.8 ± 1.2 | 1519 ± 1.2 | 1529.2 ± 1.2
x1 = 0.007456 | 1491 ± 1.3 | 1505 ± 1.2 | – | – | –
x1 = 0.00981 | 1504 ± 1.2 | 1516.7 ± 1.2 | 1528.6 ± 1.2 | 1538.8 ± 1.2 | 1547.2 ± 1.2
x1 = 0.0148 | 1530.2 ± 1.2 | 1540.6 ± 1.2 | 1550.3 ± 1.2 | 1558.4 ± 1.2 | 1565 ± 1.2
x1 = 0.01956 | 1554 ± 1.2 | 1562.9 ± 1.2 | 1569.7 ± 1.2 | 1576 ± 1.2 | 1580.7 ± 1.2
x1 = 0.02832 | 1594.2 ± 1.2 | 1599 ± 1.2 | 1602.1 ± 1.2 | 1604.7 ± 1.2 | 1606.4 ± 1.2
x1 = 0.03914 | 1636.5 ± 1.3 | 1636.7 ± 1.3 | 1635.3 ± 1.3 | 1633.7 ± 1.2 | 1631.8 ± 1.3
x1 = 0.05082 | 1672.1 ± 1.3 | 1668 ± 1.3 | 1662.5 ± 1.3 | 1657.2 ± 1.3 | 1651.3 ± 1.3
x1 = 0.06674 | 1704.8 ± 1.3 | 1695.7 ± 1.3 | 1685.7 ± 1.3 | 1676.2 ± 1.3 | 1666.3 ± 1.3
x1 = 0.09536 | 1724 ± 1.3 | 1709.3 ± 1.3 | 1695.7 ± 1.3 | 1681.6 ± 1.3 | 1667.7 ± 1.3
x1 = 0.1209 | 1715.9 ± 1.3 | 1700.4 ± 1.3 | 1684.2 ± 1.3 | 1668.3 ± 1.3 | 1653.1 ± 1.3
x1 = 0.1452 | 1699.3 ± 1.3 | 1682.6 ± 1.3 | 1666.7 ± 1.3 | 1650.2 ± 1.3 | 1633.9 ± 1.3
x1 = 0.1844 | 1669 ± 1.3 | 1651.6 ± 1.3 | 1634.3 ± 1.3 | 1617.3 ± 1.3 | 1600.4 ± 1.3
x1 = 0.2121 | 1645.8 ± 1.4 | 1627.7 ± 1.3 | 1610.5 ± 1.3 | 1593.4 ± 1.3 | 1576.1 ± 1.3
x1 = 0.2438 | 1623.7 ± 1.4 | 1604.4 ± 1.3 | 1587.9 ± 1.3 | 1569.9 ± 1.3 | 1552.3 ± 1.3
x1 = 0.2923 | 1593 ± 1.4 | 1575 ± 1.3 | 1557.5 ± 1.3 | 1539.4 ± 1.3 | 1521.5 ± 1.3
x1 = 0.361 | 1556.4 ± 1.4 | 1535.7 ± 1.4 | 1518.2 ± 1.4 | 1499.2 ± 1.4 | 1480.9 ± 1.3
x1 = 0.4369 | 1524.2 ± 1.4 | 1504.5 ± 1.4 | 1485.9 ± 1.4 | 1466.9 ± 1.4 | 1448.1 ± 1.4
x1 = 0.493 | – | – | 1461.7 ± 1.4 | 1442.5 ± 1.4 | –
x1 = 0.4937 | 1501.5 ± 1.4 | 1481 ± 1.4 | 1461.8 ± 1.4 | 1442.6 ± 1.4 | 1423.4 ± 1.4
x1 = 0.5513 | 1482.2 ± 1.4 | 1461.9 ± 1.4 | 1442.2 ± 1.4 | 1422.7 ± 1.4 | 1403.3 ± 1.4
x1 = 0.6214 | 1462.5 ± 1.4 | 1441.5 ± 1.4 | 1421.8 ± 1.4 | 1402 ± 1.4 | 1382.3 ± 1.4
x1 = 0.6775 | 1448.2 ± 1.5 | 1426.9 ± 1.5 | 1407.3 ± 1.5 | 1386.7 ± 1.4 | 1366.7 ± 1.4
x1 = 0.6943 | 1444.5 ± 1.5 | 1423.4 ± 1.5 | 1402.9 ± 1.5 | 1383.1 ± 1.5 | 1363.1 ± 1.5
x1 = 0.7458 | 1432.9 ± 1.5 | 1411.3 ± 1.5 | 1391.1 ± 1.5 | 1370.8 ± 1.5 | 1350.5 ± 1.5
x1 = 0.7733 | 1427.7 ± 1.5 | – | 1385.3 ± 1.5 | 1365.2 ± 1.5 | 1344.8 ± 1.5
x1 = 0.7947 | 1422.9 ± 1.5 | 1401.1 ± 1.5 | 1380.6 ± 1.5 | 1360.2 ± 1.5 | 1339.8 ± 1.5
x1 = 0.8276 | 1416.8 ± 1.5 | 1395.1 ± 1.5 | 1374.1 ± 1.5 | 1353.6 ± 1.5 | 1333.2 ± 1.5
x1 = 0.8488 | 1412.3 ± 1.5 | 1390.7 ± 1.5 | – | 1349.3 ± 1.5 | –
x1 = 0.8744 | 1408.1 ± 1.6 | – | 1365.1 ± 1.5 | 1344.6 ± 1.5 | 1324 ± 1.5
x1 = 0.8993 | 1403 ± 1.6 | 1381.5 ± 1.6 | 1360 ± 1.6 | 1339.3 ± 1.6 | 1319.2 ± 1.5
x1 = 0.9189 | 1399.9 ± 1.6 | 1378 ± 1.6 | 1356.7 ± 1.6 | 1335.6 ± 1.6 | 1315.1 ± 1.6
x1 = 0.9349 | – | 1375 ± 1.6 | – | – | –
x1 = 0.9411 | 1395.9 ± 1.6 | – | 1352.4 ± 1.6 | 1331.8 ± 1.6 | 1311.1 ± 1.6
x1 = 0.9436 | – | 1373.5 ± 1.6 | – | – | –
x1 = 0.9486 | 1394.8 ± 1.6 | – | 1351.3 ± 1.6 | 1330.7 ± 1.6 | 1309.8 ± 1.6
x1 = 0.9551 | – | 1371.3 ± 1.6 | – | – | –
x1 = 0.9601 | 1392.6 ± 1.6 | 1370.4 ± 1.6 | – | – | –
x1 = 0.9613 | – | – | 1349 ± 1.6 | 1327.9 ± 1.6 | 1307.3 ± 1.6
x1 = 0.9746 | – | 1367.5 ± 1.6 | – | 1325.7 ± 1.6 | 1304.7 ± 1.6
x1 = 0.9755 | – | 1367.8 ± 1.6 | – | – | –
x1 = 0.985 | 1391 ± 1.6 | 1366.2 ± 1.6 | – | – | –
x1 = 0.9871 | – | – | 1344.3 ± 1.6 | 1321.5 ± 1.6 | 1302.4 ± 1.6
x1 = 1 | 1386.4 ± 1.6 | 1364.2 ± 1.6 | 1342 ± 1.6 | 1321.2 ± 1.6 | 1300.4 ± 1.6
